Key:
[1] = Dissolution test in fasted state simulated intestinal fluid; type: physicochemical; conditions: for CONCENTRATION (dissolution): fasted state simulated intestinal fluid pH 6.5, 37° C., 50 rpm, in terms of compound (I); for concentration achieved relative to the concentration of compound (I): dissolution test, fasted state simulated intestinal fluid
Method: Each of compound (I) (50 mg), the compound of Example 1 (30 mg) and the compound of Example 2 (30 mg) was filled into a hydroxypropyl methylcellulose capsule, together with an equal weight of lactose hydrate. A 708-DS from Agilent Technologies was equipped with small stirring paddles and small vessels, and used as a dissolution test apparatus. Each drug-filled capsule was added to 50 ml of fasted state simulated intestinal fluid (a phosphate buffer pH 6.5 containing 0.75 mM lecithin and 3 mM sodium taurocholate) which had been warmed to 37° C. The drug was dissolved by rotating the stirring paddle at a speed of 50 rpm. The dissolved solution was sampled over time and the drug concentrations were measured by HPLC. Such dissolution tests using fasted state simulated intestinal fluid are often used to evaluate the dissolution and absorption characteristics of drugs (e.g., Takano et al., “Oral absorption of poorly water-soluble drugs: computer simulation of fraction absorbed in humans from a miniscale dissolution test”, Pharm Res., vol. 23, pp. 1144-1156, 2006). The results were shown in Table 1 and the graph in FIG. 12.

[2] = Test on oral absorption characteristics in dogs; type: in vivo, beagle dogs; conditions: for AREA UNDER PLASMA CONCENTRATION-TIME CURVE, MEAN: mean of 4 beagle dogs; for PLASMA CONCENTRATION MEAN: mean of dogs

For COc1ncc(C)c(-c2ccc3c(c2)[nH]c(=O)c2cnn([C@H]4CCOC4)c23)c1C.O=C(O)/C=C\C(=O)O [Example 1, (S)-7-(2-methoxy-3,5-dimethylpyridin-4-yl)-1-(tetrahydrofuran-3-yl)-1H-pyrazolo[4,3-c]quinolin-4(5H)-one Monomaleate Salt], the “CONCENTRATION (dissolution)” value ([1]; 6 minutes) was 6400 ng/mL, the “CONCENTRATION (dissolution)” value ([1]; 10 minutes) was 11800 ng/mL and the “CONCENTRATION (dissolution)” value ([1]; 15 minutes) was 20800 ng/mL. For the same molecule, the “CONCENTRATION (dissolution)” value ([1]; 20 minutes) was 23300 ng/mL, the “CONCENTRATION (dissolution)” value ([1]; 30 minutes) was 27900 ng/mL and the “CONCENTRATION (dissolution)” value ([1]; 60 minutes) was 25000 ng/mL. The “CONCENTRATION (dissolution)” value ([1]; 90 minutes) was 23900 ng/mL, the “CONCENTRATION (dissolution)” value ([1]; 120 minutes) was 22100 ng/mL and the “CONCENTRATION (dissolution)” value ([1]; 180 minutes) was 18800 ng/mL. The “CONCENTRATION (dissolution)” value ([1]; 240 minutes) was 18800 ng/mL, the “concentration achieved relative to the concentration of compound (I)” value [1] was 4- to 5 fold and the “PLASMA CONCENTRATION” value ([2]; Dog 1, 0.25 hours, oral capsule, 100 mg in terms of the free form) was “BQL”. The “PLASMA CONCENTRATION” value ([2]; Dog 1, 0.5 hours, oral capsule, 100 mg in terms of the free form) was 428 ng/mL, the “PLASMA CONCENTRATION” value ([2]; Dog 1, 1 hour, oral capsule, 100 mg in terms of the free form) was 506 ng/mL and the “PLASMA CONCENTRATION” value ([2]; Dog 1, 2 hours, oral capsule, 100 mg in terms of the free form) was 343 ng/mL. The “PLASMA CONCENTRATION” value ([2]; Dog 1, 4 hours, oral capsule, 100 mg in terms of the free form) was 219 ng/mL, the “PLASMA CONCENTRATION” value ([2]; Dog 1, 6 hours, oral capsule, 100 mg in terms of the free form) was 158 ng/mL and the “PLASMA CONCENTRATION” value ([2]; Dog 1, 8 hours, oral capsule, 100 mg in terms of the free form) was 134 ng/mL. The “PLASMA CONCENTRATION” value ([2]; Dog 1, 24 hours, oral capsule, 100 mg in terms of the free form) was 102 ng/mL, the “AREA UNDER PLASMA CONCENTRATION-TIME CURVE” value ([2]; Dog 1, oral capsule, 100 mg in terms of the free form) was 3830 ng·h/mL and the “PLASMA CONCENTRATION” value ([2]; Dog 2, 0.25 hours, oral capsule, 100 mg in terms of the free form) was “BQL”. For the same molecule, the “PLASMA CONCENTRATION” value ([2]; Dog 2, 0.5 hours, oral capsule, 100 mg in terms of the free form) was 140 ng/mL, the “PLASMA CONCENTRATION” value ([2]; Dog 2, 1 hour, oral capsule, 100 mg in terms of the free form) was 457 ng/mL and the “PLASMA CONCENTRATION” value ([2]; Dog 2, 2 hours, oral capsule, 100 mg in terms of the free form) was 469 ng/mL. The “PLASMA CONCENTRATION” value ([2]; Dog 2, 4 hours, oral capsule, 100 mg in terms of the free form) was 313 ng/mL, the “PLASMA CONCENTRATION” value ([2]; Dog 2, 6 hours, oral capsule, 100 mg in terms of the free form) was 224 ng/mL and the “PLASMA CONCENTRATION” value ([2]; Dog 2, 8 hours, oral capsule, 100 mg in terms of the free form) was 199 ng/mL. For the same molecule, the “PLASMA CONCENTRATION” value ([2]; Dog 2, 24 hours, oral capsule, 100 mg in terms of the free form) was 23 ng/mL, the “AREA UNDER PLASMA CONCENTRATION-TIME CURVE” value ([2]; Dog 2, oral capsule, 100 mg in terms of the free form) was 4160 ng·h/mL and the “PLASMA CONCENTRATION” value ([2]; Dog 3, 0.5 hours, oral capsule, 100 mg in terms of the free form) was 377 ng/mL. For the same molecule, the “PLASMA CONCENTRATION” value ([2]; Dog 3, 1 hour, oral capsule, 100 mg in terms of the free form) was 422 ng/mL, the “PLASMA CONCENTRATION” value ([2]; Dog 3, 2 hours, oral capsule, 100 mg in terms of the free form) was 337 ng/mL and the “PLASMA CONCENTRATION” value ([2]; Dog 3, 4 hours, oral capsule, 100 mg in terms of the free form) was 272 ng/mL. For the same molecule, the “PLASMA CONCENTRATION” value ([2]; Dog 3, 6 hours, oral capsule, 100 mg in terms of the free form) was 217 ng/mL, the “PLASMA CONCENTRATION” value ([2]; Dog 3, 8 hours, oral capsule, 100 mg in terms of the free form) was 147 ng/mL and the “PLASMA CONCENTRATION” value ([2]; Dog 3, 24 hours, oral capsule, 100 mg in terms of the free form) was 20 ng/mL. For the same molecule, the “AREA UNDER PLASMA CONCENTRATION-TIME CURVE” value ([2]; Dog 3, oral capsule, 100 mg in terms of the free form) was 3490 ng·h/mL, the “PLASMA CONCENTRATION” value ([2]; Dog 4, 0.25 hours, oral capsule, 100 mg in terms of the free form) was “BQL” and the “PLASMA CONCENTRATION” value ([2]; Dog 4, 1 hour, oral capsule, 100 mg in terms of the free form) was 422 ng/mL. The “PLASMA CONCENTRATION” value ([2]; Dog 4, 2 hours, oral capsule, 100 mg in terms of the free form) was 401 ng/mL, the “PLASMA CONCENTRATION” value ([2]; Dog 4, 4 hours, oral capsule, 100 mg in terms of the free form) was 322 ng/mL and the “PLASMA CONCENTRATION” value ([2]; Dog 4, 6 hours, oral capsule, 100 mg in terms of the free form) was 248 ng/mL. The “PLASMA CONCENTRATION” value ([2]; Dog 4, 8 hours, oral capsule, 100 mg in terms of the free form) was 210 ng/mL, the “PLASMA CONCENTRATION” value ([2]; Dog 4, 24 hours, oral capsule, 100 mg in terms of the free form) was 74 ng/mL and the “AREA UNDER PLASMA CONCENTRATION-TIME CURVE” value ([2]; Dog 4, oral capsule, 100 mg in terms of the free form) was 4540 ng·h/mL. For the same molecule, the concentration at 0.25 h ([2]; beagle, dog, plasma, po, 100 mg, Dog 3, 0.25 hours, oral capsule, 100 mg in terms of the free form) was 279 ng/mL, the concentration at 0.5 h ([2]; beagle, dog, plasma, po, 100 mg, Dog 4, 0.5 hours, oral capsule, 100 mg in terms of the free form) was 6 ng/mL and the “AREA UNDER PLASMA CONCENTRATION-TIME CURVE, MEAN” value ([2]; oral capsule, 100 mg in terms of the free form, Monomaleate Salt) was 4000 ± 450 ng·h/mL. For the same molecule, the “AREA UNDER PLASMA CONCENTRATION-TIME CURVE, MEAN” value ([2]; oral capsule, 100 mg in terms of the free form, listed as EXAMPLE 1, Monomaleate Salt) was 4000 ng·h/mL, the “PLASMA CONCENTRATION MEAN” value ([2]; 0.5 hours, oral capsule, 100 mg in terms of the free form) was 315 ng/mL and the “PLASMA CONCENTRATION MEAN” value ([2]; 1 hour, oral capsule, 100 mg in terms of the free form) was 452 ng/mL. For the same molecule, the “PLASMA CONCENTRATION MEAN” value ([2]; 2 hours, oral capsule, 100 mg in terms of the free form) was 388 ng/mL, the “PLASMA CONCENTRATION MEAN” value ([2]; 4 hours, oral capsule, 100 mg in terms of the free form) was 282 ng/mL and the “PLASMA CONCENTRATION MEAN” value ([2]; 6 hours, oral capsule, 100 mg in terms of the free form) was 212 ng/mL. The “PLASMA CONCENTRATION MEAN” value ([2]; 8 hours, oral capsule, 100 mg in terms of the free form) was 172 ng/mL, the “PLASMA CONCENTRATION MEAN” value ([2]; 24 hours, oral capsule, 100 mg in terms of the free form) was 55 ng/mL and the “absorption rate compared with compound (I)” value ([2]; oral capsule to beagle dogs, crossover) was “higher”.
With COc1ncc(C)c(-c2ccc3c(c2)[nH]c(=O)c2cnn([C@H]4CCOC4)c23)c1C.O=S(=O)(O)c1ccccc1 [Example 2, (S)-7-(2-methoxy-3,5-dimethylpyridin-4-yl)-1-(tetrahydrofuran-3-yl)-1H-pyrazolo[4,3-c]quinolin-4(5H)-one Monobenzenesulfonate Salt] the “CONCENTRATION (dissolution)” value ([1]; 6 minutes) was 0 ng/mL, the “CONCENTRATION (dissolution)” value ([1]; 10 minutes) was 500 ng/mL and the “CONCENTRATION (dissolution)” value ([1]; 15 minutes) was 7300 ng/mL. The “CONCENTRATION (dissolution)” value ([1]; 20 minutes) was 9300 ng/mL, the “CONCENTRATION (dissolution)” value ([1]; 30 minutes) was 10200 ng/mL and the “CONCENTRATION (dissolution)” value ([1]; 60 minutes) was 10700 ng/mL. The “CONCENTRATION (dissolution)” value ([1]; 90 minutes) was 10600 ng/mL, the “CONCENTRATION (dissolution)” value ([1]; 120 minutes) was 10700 ng/mL and the “CONCENTRATION (dissolution)” value ([1]; 180 minutes) was 9400 ng/mL. For the same molecule, the “CONCENTRATION (dissolution)” value ([1]; 240 minutes) was 9000 ng/mL and the “concentration achieved relative to the concentration of compound (I)” value [1] was “about 2 fold”.
